Reference: patent publication US7893031B2, “Neuronal differentiation inhibitor peptide and use thereof” (Toagosei Co., Ltd., priority 2005, dated 2011)
No end group written: not given here.

Tested on: adipose stem cells procured from humans
Experiment: Evaluation of neuronal differentiation inhibitor activity of the synthetic peptides (immunostaining for MAPs and NeuN neuron markers, confocal laser microscopy)
Format: cell-based
Settings: culture of human adipose stem cells, 24 hours after peptide addition; for degree of neuronal differentiation (neuron markers MAPs and NeuN) when added together with VHL peptide: sample peptide added together with VHL peptide (comparative sample 1), each about 100 ng/mL
Method: Each sample obtained in example 1 was analyzed for the neuronal differentiation inhibitor activity.
In particular, each sample peptide together with the peptide of comparative sample 1 (hereinafter referred to as VHL peptide) was added to and incubated in a culture of adipose stem cells procured from humans. The addition concentration of each peptide was about 100 ng/mL. For comparison, a culture containing VHL peptide alone was incubated in a similar manner.
At 24 hours after peptide addition, evaluation was carried out by a standard immune antibody procedure. Specifically, MAPs ([…]) and NeuN (neuronal nuclei) were added as neuron markers, and the degree of neuronal differentiation was evaluated by confocal laser microscopy. MAPs is a marker that can stain (detect) broadly, from relatively immature neurons to mature neurons. NeuN is a marker that can specifically stain (detect) mature neurons.

Row | Substance | degree of neuronal differentiation (neuron markers MAPs and NeuN) when added together with VHL peptide | degree of neuronal differentiation (neuron markers MAPs and NeuN) (VHL peptide alone, about 100 ng/mL)
1 | YARAAARQARA-TLVSLCQTVLMSHID (YARAAARQARATLVSLCQTVLMSHID; not fully specified (C-terminus); printed as YARAAARQARA-TLVSLCQTVLMSHID) [Sample 2, PTD4 domain plus 15 N-terminal residues of the BC-box of C. elegans elongin-A] | no significant neuronal differentiation was observed | –
2 | YARAAARQARA-TLKERCLQVVRSLVK (YARAAARQARATLKERCLQVVRSLVK) [VHL peptide, reference compound] | – | significant neuronal differentiation
3 | YARAAARQARA-SLQTLCEISLMRNHS (YARAAARQARASLQTLCEISLMRNHS; not fully specified (C-terminus); printed as YARAAARQARA-SLQTLCEISLMRNHS) [Sample 3, PTD4 domain plus 15 N-terminal residues of the BC-box of S. cerevisiae elongin-A] | no significant neuronal differentiation was observed | –
4 | YARAAARQARA-TLHQQCIRVLKNNID (YARAAARQARATLHQQCIRVLKNNID; not fully specified (C-terminus); printed as YARAAARQARA-TLHQQCIRVLKNNID) [Sample 1, PTD4 domain plus 15 N-terminal residues of the BC-box of human elongin-A] | no significant neuronal differentiation was observed | –
